From US20250127727A1, “IONIZABLE LIPIDS WITH BIOACTIVE MOTIFS” (GEORGIA TECH RESEARCH CORPORATION, priority 2021, published 2025) come the findings set out here.

This assay relates to Ai14 mice. Kind of assay: Normalized delivery and fold enrichment from DNA barcode sequencing of tdTomato+ cells. As to conditions: by LNP component; pool of 65 LNPs. The format is in vivo. As to the method: Following characterization of the pool of 65 Pi-LNPs, the LNPs were injected into Ai14 mice at a total nucleic dose of 1.5 mg/kg (averaging a 0.023 mg total nucleic acid/kg/particle, for all 65 Pi-LNPs) (FIG. 2A). The Ai14 mice have a Lox-Stop-Lox-tdTomato construct downstream of a CAG promoter. Thus, if Cre mRNA is delivered into a target cell and is subsequently functionally translated into Cre protein, the cells become tdTomato+ (FIG. 2A). By isolating tdTomato+ cells using fluorescence-activated cell sorting (FACS, FIG. 4, FIG. 5) and sequencing the cells using next-generation sequencing, it was possible to isolate the DNA barcodes, associated with specific LNPs, within cells that were functionally transfected with Cre mRNA 26, 36-38 Three days after injection, liver, spleen, lung, and kidney were isolated and quantified the percentage of tdTomato+ cells from 14 different cell populations (FIG. 2B). […] The percentage of tdTomato+ quantified in liver endothelial cells and dendritic cells was <5%, and no delivery in lung and kidney was observed. […] From the barcode raw counts obtained through sequencing, the normalized delivery of each individual barcode was calculated. Briefly, the normalized delivery of a given barcode was calculated as the number of counts for that barcode divided by the counts for all N barcodes (Tables 1-3, below). […]

For `CC(C)CCC[C@@H](C)[C@H]1CC[C@H]2[C@@H]3CC=C4C[C@@H](O)CC[C@]4(C)[C@H]3CC[C@]12C` [cholesterol], the “fold enrichment (odds of being in top or bottom 10% of LNPs)” value is given as “outperformed 20α-OH cholesterol”.
